Some results are limits rather than exact numbers.

The test system of the first test is ornithine decarboxylase (ODC), TPA-induced activity.
Assay: not given
Conditions: background statement on retinoic acid; cited from earlier work.
For `CC1=C(/C=C/C(C)=C/C=C/C(C)=C/C(=O)O)C(C)(C)CCC1` [Retinoic acid], the “inhibition of TPA induction of ODC activity (in words)” value is “inhibits this induction of ODC activity by TPA”.

For a further test the test system is unchanged. The experiment in a line: ODC assay: inhibition of TPA induction of ornithine decarboxylase. In kind it is biochemical. Conditions: concentration of the test compound which causes 80% inhibition in the ODC assay (TPA-induced ODC). The text has this: The retinoic acid-like activity of these compounds is confirmed through the classic measure of retinoic acid activity involving the effects of retinoic acid on ornithine decarboxylase. The original work on the correlation between retinoic acid and decrease in cell proliferation was done by Verma & Boutwell, Cancer Research, 1977, 37,2196-2201. That reference discloses that ornithine decarboxylase (ODC) activity increased precedent to polyamine biosynthesis. It has been established elsewhere that increases in polyamine synthesis can be correlated or associated with cellular proliferation. Thus, if ODC activity could be inhibited, cell hyperproliferation could be modulated. Although all cases for ODC activity increases are unknown, it is known that 12-O-tetradecanoylphorbol-13-acetate (TPA) induces ODC activity. […] Activity of exemplary compounds of the present invention in the above-described ODC assay is disclosed in Table 2 which provides the IC80 concentration for the respective exemplary compound. ("IC80 " is that concentration of the test compound which causes 80% inhibition in the ODC assay. By analogy, IC60, for example, is that concentration of the test compound which causes 60% inhibition in the ODC assay.)
`CCOC(=O)c1ccc(C#Cc2ccc3c(c2)C(OS(=O)(=O)C(F)(F)F)=CCC3(C)C)cc1` [Compound 66, Ethyl 4-[(5-trifluoromethylsulfonyloxy-7,8-dihydro-8,8-dimethylnapth-3-yl)ethynyl]benzoate] came in with an IC80 conc of 17.00 nmols.
As for `CCOC(=O)c1ccc(C#Cc2ccc3c(c2)C(C)(C)CC=C3OS(=O)(=O)C(F)(F)F)cc1` [Compound 87, Ethyl 4-[(5-trifluoromethylsulfonyloxy-7,8-dihydro-8,8-dimethylnaphth-2-yl)ethynyl]benzoate], the IC80 conc turned out to be 16.80 nmols.
As for `CCOC(=O)c1ccc(C#Cc2ccc3c(c2)C(C)(C)CC=C3OC(C)=O)cc1` [Compound 105, Ethyl 4-[(5-acetoxy-7,8-dihydro-8,8-dimethylnaphth-2-yl)ethynyl]benzoate], the IC80 conc stood at 0.76 nmols.
Still for that read-out and setting: in the case of `CCOC(=O)c1ccc(C#Cc2ccc3c(c2)C(OC(C)=O)=CCC3(C)C)cc1` [Compound 126, Ethyl 4-[(5-acetoxy-7,8-dihydro-8,8-dimethylnaphth-3-yl)ethynyl]benzoate] it was 0.58 nmols.
On to `CCOC(=O)c1ccc(C#Cc2ccc3c(c2)C(Sc2ccccc2)=CCC3(C)C)cc1` [Compound 155, Ethyl 4-[(7,8-dihydro-8,8-dimethyl-5-phenylthionaphth-3yl)ethynyl]benzoate], for which the IC80 conc is given as 2.3 nmols.
The same measure, in the same setting: in the case of `CCOC(=O)c1ccc(C#Cc2ccc3c(c2)C(S(=O)(=O)c2ccccc2)=CCC3(C)C)cc1` [Compound 157, Ethyl 4-[(7,8-dihydro-8,8-dimethyl-5-phenylsulfonylnaphth-3-yl)ethynyl]benzoate] it was less than 0.1 nmols.

The values above are taken from patent publication US5618931A, “Acetylenes disubstituted with a 5 substituted dihydronaphthyl group and with an aryl or heteroaryl group having retinoid-like biological activity” (Allergan, priority 1994, dated 1997).
